Laboratory results: patent publication US9708314B2, “Heterocyclic amide compound” (NISSAN CHEMICAL INDUSTRIES, LTD., priority 2013, dated 2017)

Legend:
Assay type in all cases: in vivo
[1] = test system: directly sowed Oryza sativa; assay: Test Example 3: effect on crop by application to foliage (Wagner pot, water depth 0.1-0.5 cm); conditions: Nineteenth Table, application to foliage
In short: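 Three weeks after spraying, each species was graded 0–5 for herbicidal ratio, 5 being 90% or more. Application: water-diluted emulsifiable concentrate at a fixed g/ha to foliage of 14-day-old greenhouse (25–30 °C) plants in alluvial soil.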

Galium spurium = assay: Test Example 4: herbicidal effect by application to foliage (diluvial soil, plastic box); conditions: for Q (Galium spurium) herbicidal effect grade: foliage application; for herbicidal effect, Q (Galium spurium) / Q: herbicidal effect on Galium spurium: application to foliage; for Q: herbicidal effect on Galium spurium: application herbicide amount 320 g/ha
In short: (§1)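 Plants were grown in sterilized diluvial soil in a greenhouse at 25-30° C for 14 days, then sprayed on stems and leaves with water-diluted emulsion formulation at set rates in g/ha. Weed control and crop injury were scored 3 weeks after treatment on a 0-5 herbicidal-ratio scale, from 0 (≤5%) to 5 (≥90%).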

[2] = test system: transplanted Oryza sativa; assay: Test Example 1: effect on crop, application before weed generation in submerged conditions; conditions: Seventeenth Table; for a: transplanted Oryza sativa (effect on crop grade): Application herbicide amount 320 g/ha
In short: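 Pre-emergence application to water surface of submerged pots (4 cm depth, alluvial soil) on sowing day, with 2.5-leaf rice transplanted; emulsion diluted to g/ha rates. Grown in greenhouse at 25–30 °C; 0–5 herbicidal/crop-effect score after three weeks.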

Triticum aestivum = assay: Test Example 4: effect on crop by application to foliage (diluvial soil, plastic box); conditions: for e (Triticum aestivum) effect on crop grade: foliage application; for effect on crop, e (Triticum aestivum) / e: effect on crop, Triticum aestivum: application to foliage; for e: effect on crop, Triticum aestivum: application herbicide amount 320 g/ha
In short: as §1

Zea mays = assay: as above; conditions: for b (Zea mays) effect on crop grade: foliage application; for effect on crop, b (Zea mays) / c: effect on crop, Zea mays: application to foliage; for c: effect on crop, Zea mays: application herbicide amount 320 g/ha
In short: as §1

[3] = test system: Beta vulgaris ssp. vulgaris; assay: as above; conditions: for f (Beta vulgaris ssp. vulgaris) effect on crop grade: foliage application; for effect on crop, f (Beta vulgaris ssp. vulgaris) / f: effect on crop, Beta vulgaris ssp. vulgaris: application to foliage; for f: effect on crop, Beta vulgaris ssp. vulgaris: application herbicide amount 320 g/ha
In short: as §1

Glycine max = assay: as above; conditions: for c (Glycine max) effect on crop grade: foliage application; for effect on crop, c (Glycine max) / d: effect on crop, Glycine max: application to foliage; for d: effect on crop, Glycine max: application herbicide amount 320 g/ha
In short: as §1

[4] = test system: directly sowed Oryza sativa; assay: as above; conditions: for d (directly sowed Oryza sativa) effect on crop grade: foliage application; for effect on crop, d (directly sowed Oryza sativa) / b: effect on crop, directly sowed Oryza sativa: application to foliage; for b: effect on crop, directly sowed Oryza sativa: application herbicide amount 320 g/ha
In short: as §1

Brassica campestris L. = assay: as above; conditions: for g (Brassica campestris L.) effect on crop grade: foliage application; for effect on crop, g (Brassica campestris L.) / g: effect on crop, Brassica campestris L.: application to foliage; for g: effect on crop, Brassica campestris L.: application herbicide amount 320 g/ha
In short: as §1

[5] = application herbicide amount 320 g/ha
[6] = application herbicide amount 260 g/ha

| SMILES | b (effect on crop grade) [1, 5] | Q (Galium spurium) herbicidal effect grade (Galium spurium; 320 g/ha) | a: transplanted Oryza sativa (effect on crop grade) [2] | e (Triticum aestivum) effect on crop grade (Triticum aestivum; 320 g/ha) | b (Zea mays) effect on crop grade (Zea mays; 320 g/ha) | f (Beta vulgaris ssp. vulgaris) effect on crop grade ([3]; 320 g/ha) | c (Glycine max) effect on crop grade (Glycine max; 320 g/ha) | d (directly sowed Oryza sativa) effect on crop grade ([4]; 320 g/ha) | g (Brassica campestris L.) effect on crop grade (Brassica campestris L.; 320 g/ha) | further results |
| --- | --- | --- | --- | --- | --- | --- | --- | --- | --- | --- |
| COCCn1nnnc1NC(=O)c1ccc(C(F)(F)F)n2c(C(C)C)nnc12 [2-041] | 3 (Herbicidal ratio of 40% or more and less than 70%) | 4 (Herbicidal ratio of 70% or more and less than 90%) | 0 (Herbicidal ratio of 5% or less (almost no effect)) | 3 (Herbicidal ratio of 40% or more and less than 70%) | 2 (Herbicidal ratio of 20% or more and less than 40%) | 5 (Herbicidal ratio of 90% or more (almost completely withered)) | 0 (Herbicidal ratio of 5% or less (almost no effect)) | 4 (Herbicidal ratio of 70% or more and less than 90%) | 4 (Herbicidal ratio of 70% or more and less than 90%) | – |
| Cn1nnnc1NC(=O)c1ccc(C(F)(F)F)n2c(C=O)nnc12 [2-109] | – | – | – | – | – | – | – | – | – | b (effect on crop grade) [1, 6]: 2 (Herbicidal ratio of 20% or more and less than 40%); herbicidal effect, Q (Galium spurium) (Galium spurium; 256 g/ha): 3 (Herbicidal ratio of 40% or more and less than 70%); a (transplanted Oryza sativa) effect on crop grade [2, 6]: 0 (Herbicidal ratio of 5% or less (almost no effect)); effect on crop, e (Triticum aestivum) (Triticum aestivum; 256 g/ha): 1 (Herbicidal ratio of 5% or more and less than 20%); effect on crop, b (Zea mays) (Zea mays; 256 g/ha): 1 (Herbicidal ratio of 5% or more and less than 20%); effect on crop, f (Beta vulgaris ssp. vulgaris) ([3]; 256 g/ha): 5 (Herbicidal ratio of 90% or more (almost completely withered)); effect on crop, c (Glycine max) (Glycine max; 256 g/ha): 0 (Herbicidal ratio of 5% or less (almost no effect)); effect on crop, d (directly sowed Oryza sativa) ([4]; 256 g/ha): 4 (Herbicidal ratio of 70% or more and less than 90%); effect on crop, g (Brassica campestris L.) (Brassica campestris L.; 256 g/ha): 4 (Herbicidal ratio of 70% or more and less than 90%) |
| COc1ccc(N(C)c2nnc3c(C(=O)Nc4nnco4)ccc(C(F)(F)F)n23)cc1 [1-171] | 0 (Herbicidal ratio of 5% or less (almost no effect)) | – | 1 (Herbicidal ratio of 5% or more and less than 20%) | – | – | – | – | – | – | Q: herbicidal effect on Galium spurium (Galium spurium): 2 (Herbicidal ratio of 20% or more and less than 40%); e: effect on crop, Triticum aestivum (Triticum aestivum): 0 (Herbicidal ratio of 5% or less (almost no effect)); c: effect on crop, Zea mays (Zea mays): 0 (Herbicidal ratio of 5% or less (almost no effect)); f: effect on crop, Beta vulgaris ssp. vulgaris [3]: 5 (Herbicidal ratio of 90% or more (almost completely withered)); d: effect on crop, Glycine max (Glycine max): 3 (Herbicidal ratio of 40% or more and less than 70%); b: effect on crop, directly sowed Oryza sativa [4]: 0 (Herbicidal ratio of 5% or less (almost no effect)); g: effect on crop, Brassica campestris L. (Brassica campestris L.): 3 (Herbicidal ratio of 40% or more and less than 70%) |
| CCCS(=O)(=O)c1nnc2c(C(=O)Nc3nnnn3C)ccc(C(F)(F)F)n12 [2-070] | 3 (Herbicidal ratio of 40% or more and less than 70%) | 4 (Herbicidal ratio of 70% or more and less than 90%) | 4 (Herbicidal ratio of 70% or more and less than 90%) | 4 (Herbicidal ratio of 70% or more and less than 90%) | 3 (Herbicidal ratio of 40% or more and less than 70%) | 5 (Herbicidal ratio of 90% or more (almost completely withered)) | 4 (Herbicidal ratio of 70% or more and less than 90%) | 3 (Herbicidal ratio of 40% or more and less than 70%) | 5 (Herbicidal ratio of 90% or more (almost completely withered)) | – |
| CC(C)c1nnc2c(C(=O)Nc3nnnn3C)ccc(C(F)(F)C(F)(F)F)n12 [2-049] | 1 (Herbicidal ratio of 5% or more and less than 20%) | 3 (Herbicidal ratio of 40% or more and less than 70%) | 3 (Herbicidal ratio of 40% or more and less than 70%) | 0 (Herbicidal ratio of 5% or less (almost no effect)) | 2 (Herbicidal ratio of 20% or more and less than 40%) | 4 (Herbicidal ratio of 70% or more and less than 90%) | 1 (Herbicidal ratio of 5% or more and less than 20%) | 4 (Herbicidal ratio of 70% or more and less than 90%) | 3 (Herbicidal ratio of 40% or more and less than 70%) | – |
| CC(=O)OCc1nnc2c(C(=O)Nc3nnnn3C)ccc(C(F)(F)F)n12 [2-107] | 4 (Herbicidal ratio of 70% or more and less than 90%) | – | – | – | – | – | – | – | – | herbicidal effect, Q (Galium spurium) (Galium spurium; 320 g/ha): 4 (Herbicidal ratio of 70% or more and less than 90%); a (transplanted Oryza sativa) effect on crop grade [2, 5]: 1 (Herbicidal ratio of 5% or more and less than 20%); effect on crop, e (Triticum aestivum) (Triticum aestivum; 320 g/ha): 0 (Herbicidal ratio of 5% or less (almost no effect)); effect on crop, b (Zea mays) (Zea mays; 320 g/ha): 3 (Herbicidal ratio of 40% or more and less than 70%); effect on crop, f (Beta vulgaris ssp. vulgaris) ([3]; 320 g/ha): 5 (Herbicidal ratio of 90% or more (almost completely withered)); effect on crop, c (Glycine max) (Glycine max; 320 g/ha): 0 (Herbicidal ratio of 5% or less (almost no effect)); effect on crop, d (directly sowed Oryza sativa) ([4]; 320 g/ha): 5 (Herbicidal ratio of 90% or more (almost completely withered)); effect on crop, g (Brassica campestris L.) (Brassica campestris L.; 320 g/ha): 4 (Herbicidal ratio of 70% or more and less than 90%) |
| Cc1nnc2c(C(=O)Nc3nnnn3C)ccc(C(F)(F)F)n12 [2-002] | 2 (Herbicidal ratio of 20% or more and less than 40%) | – | 0 (Herbicidal ratio of 5% or less (almost no effect)) | – | – | – | – | – | – | Q: herbicidal effect on Galium spurium (Galium spurium): 4 (Herbicidal ratio of 70% or more and less than 90%); e: effect on crop, Triticum aestivum (Triticum aestivum): 1 (Herbicidal ratio of 5% or more and less than 20%); c: effect on crop, Zea mays (Zea mays): 0 (Herbicidal ratio of 5% or less (almost no effect)); f: effect on crop, Beta vulgaris ssp. vulgaris [3]: 5 (Herbicidal ratio of 90% or more (almost completely withered)); d: effect on crop, Glycine max (Glycine max): 3 (Herbicidal ratio of 40% or more and less than 70%); b: effect on crop, directly sowed Oryza sativa [4]: 2 (Herbicidal ratio of 20% or more and less than 40%); g: effect on crop, Brassica campestris L. (Brassica campestris L.): 4 (Herbicidal ratio of 70% or more and less than 90%) |
| COCCNc1nnc2c(C(=O)Nc3nnnn3C)ccc(C(F)(F)F)n12 [2-074] | 5 (Herbicidal ratio of 90% or more (almost completely withered)) | 3 (Herbicidal ratio of 40% or more and less than 70%) | 3 (Herbicidal ratio of 40% or more and less than 70%) | 3 (Herbicidal ratio of 40% or more and less than 70%) | 5 (Herbicidal ratio of 90% or more (almost completely withered)) | 5 (Herbicidal ratio of 90% or more (almost completely withered)) | 3 (Herbicidal ratio of 40% or more and less than 70%) | 4 (Herbicidal ratio of 70% or more and less than 90%) | 4 (Herbicidal ratio of 70% or more and less than 90%) | – |
| C=CCSc1nnc2c(C(=O)Nc3nnnn3C)ccc(C(F)(F)F)n12 [2-102] | 1 (Herbicidal ratio of 5% or more and less than 20%) | – | – | – | – | – | – | – | – | herbicidal effect, Q (Galium spurium) (Galium spurium; 320 g/ha): 3 (Herbicidal ratio of 40% or more and less than 70%); a (transplanted Oryza sativa) effect on crop grade [2, 5]: 1 (Herbicidal ratio of 5% or more and less than 20%); effect on crop, e (Triticum aestivum) (Triticum aestivum; 320 g/ha): 1 (Herbicidal ratio of 5% or more and less than 20%); effect on crop, b (Zea mays) (Zea mays; 320 g/ha): 1 (Herbicidal ratio of 5% or more and less than 20%); effect on crop, f (Beta vulgaris ssp. vulgaris) ([3]; 320 g/ha): 5 (Herbicidal ratio of 90% or more (almost completely withered)); effect on crop, c (Glycine max) (Glycine max; 320 g/ha): 0 (Herbicidal ratio of 5% or less (almost no effect)); effect on crop, d (directly sowed Oryza sativa) ([4]; 320 g/ha): 4 (Herbicidal ratio of 70% or more and less than 90%); effect on crop, g (Brassica campestris L.) (Brassica campestris L.; 320 g/ha): 3 (Herbicidal ratio of 40% or more and less than 70%) |
